Laboratory results taken from patent US12378243B2, “Quinoline compounds as inhibitors of KRAS” (Incyte Corporation, priority 2021, dated 2025).

What was measured:
[1] = target: KRAS G12D (Homo sapiens, UniProt P01116, G12D); assay: GDP-GTP exchange assay, KRAS G12D; format: biochemical; settings: bodipy-loaded KRAS G12D 2.5 nM, GppNHp 500 uM, SOS1 150 nM; 4 hours pre-incubation, 2 hours incubation; read-out: G12D_exchange
Description: Inhibitors were serially diluted in DMSO and a volume of 0.1 μL was transferred to the wells of a black low volume 384-well plate. […] The exchange was initiated by the addition of a 5 μL/well volume containing 1 mM GppNHp and 300 nM SOS1 in assay buffer. […] The reaction plates were incubated at ambient temperature for 2 hours, a time estimated for complete GDP-GTP exchange in the absence of inhibitor.
Either GraphPad prism or Genedata Screener SmartFit was used to analyze the data. The IC50 values were derived by fitting the data to a four parameter logistic equation producing a sigmoidal dose-response curve with a variable Hill coefficient.
“NA” indicates IC50 not available.

[2] = tested on: Caco-2 cells; assay: Caco2 assay (permeability, A-B); format: in vitro ADME; settings: Papp absorptive direction (A-B), test compound 50 μM, 120 minutes at 37° C.
Description: Caco-2 cells are grown at 37° C. in an atmosphere of 5% CO2 in DMEM growth medium supplemented with 10% (v/v) fetal bovine serum, 1% (v/v) nonessential amino acids, penicillin (100 U/mL), and streptomycin (100 μg/mL). Confluent cell monolayers are subcultured every 7 days or 4 days for Caco-2 by treatment with 0.05% trypsin containing […]. Caco-2 cells are seeded in 96-well Transwell plates. The seeding density for Caco-2 cells is 14,000 cells/well. DMEM growth medium is replaced every other day after seeding. Cell monolayers are used for transport assays between 22 and 25 days for Caco-2 cells.
Cell culture medium is removed and replaced with HBSS. To measure the TEER, the HBSS is added into the donor compartment (apical side) and receiver compartment (basolateral side). The TEER is measured by using a REMS Autosampler to ensure the integrity of the cell monolayers. Caco-2 cell monolayers with TEER values ≥300 Ω·cm^2 are used for transport experiments. To determine the Papp in the absorptive direction (A-B), solution of test compound (50 μM) in HBSS is added to the donor compartment (apical side), while HBSS solution with 4% BSA is added to the receiver compartment (basolateral side). The apical volume was 0.075 mL, and the basolateral volume is 0.25 mL. The incubation period is 120 minutes at 37° C. in an atmosphere of 5% CO2. At the end of the incubation period, samples from the donor and receiver sides are removed and an equal volume of acetonitrile is added for protein precipitation. The supernatants are collected after centrifugation (3000 rpm, Allegra X-14R Centrifuge from Beckman Coulter, Indianapolis, IN) for LCMS analysis. The permeability value is determined according to the equation:
[formula] • where the flux rate (F, mass/time) is calculated from the slope of cumulative amounts of compound of interest on the receiver side, SA is the surface area of the cell membrane, VD is the donor volume, and MD is the initial amount of the solution in the donor chamber.
The symbol “+” indicates a Caco-2 value of […], “++” indicates a Caco-2 value of >0.5 but ≤1; and “+++” indicates a Caco-2 value of >1. “NA” indicates IC50 not available.

[3] = target: KRAS G12V mutant (Homo sapiens, UniProt P01116, G12V); assay: GDP-GTP exchange assay, KRAS G12V; format: biochemical; settings: bodipy loaded KRAS G12V 2.5 nM; 3 hours incubation after adding GppNHp-SOS1 mixture; read-out: G12V_exchange
Chain of KRAS G12V mutant (P01116 1-188 isoform P01116-2 G12V): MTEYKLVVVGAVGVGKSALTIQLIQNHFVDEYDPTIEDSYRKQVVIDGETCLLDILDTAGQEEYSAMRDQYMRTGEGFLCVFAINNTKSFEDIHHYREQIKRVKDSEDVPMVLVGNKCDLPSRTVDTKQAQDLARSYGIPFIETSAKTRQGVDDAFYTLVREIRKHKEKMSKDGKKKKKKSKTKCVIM

Chain of KRAS G12D (P01116 1-188 isoform P01116-2 G12D): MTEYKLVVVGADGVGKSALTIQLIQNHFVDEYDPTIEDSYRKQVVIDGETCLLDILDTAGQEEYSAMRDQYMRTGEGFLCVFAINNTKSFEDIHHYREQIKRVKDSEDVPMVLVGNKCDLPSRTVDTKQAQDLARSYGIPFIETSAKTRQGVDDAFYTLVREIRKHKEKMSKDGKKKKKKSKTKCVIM

Row | IC50 [1] [nM] | Caco-2 ([2]; Table 4) | IC50 [3] [nM] | Caco-2 ([2]; Table 3) | Compound
1 | < 100 | ++ (a Caco-2 value of >0.5 but ≤1) | < 100 | – | CNC(=O)c1ncc(-c2nc3c(F)c(-c4cccc(Cl)c4Cl)c(CCC#N)cc3c3c2cc([C@H]2CCCN2C(=O)OC)n3[C@H]2[C@H]3CN[C@@H]2C3)cc1F [Example 39, Methyl (2R)-2-(1-((1R,4R,5S)-2-azabicyclo[2.1.1]hexan-5-yl)-8-(2-cyanoethyl)-7-(2,3-dichlorophenyl)-6-fluoro-4-(5-fluoro-6-(methylcarbamoyl)pyridin-3-yl)-1H-pyrrolo[3,2-c]quinolin-2-yl)pyrrolidine-1-carboxylate]
2 | < 100 | +++ (a Caco-2 value of >1) | < 100 | – | COC(=O)N1CCC[C@@H]1c1cc2c(-n3cncn3)nc3c(F)c(-c4cccc(C)c4Cl)c(CCC#N)cc3c2n1[C@H]1[C@H]2CN[C@@H]1C2 [Example 29, Methyl (2R)-2-(1-((1R,4R,5S)-2-azabicyclo[2.1.1]hexan-5-yl)-7-(2-chloro-3-methylphenyl)-8-(2-cyanoethyl)-6-fluoro-4-(1H-1,2,4-triazol-1-yl)-1H-pyrrolo[3,2-c]quinolin-2-yl)pyrrolidine-1-carboxylate]
3 | < 100 | – | < 100 | + (a Caco-2 value of 50.5) | CCOc1nc2c(F)c(-c3cc(O)cc(Cl)c3Cl)c(CCC#N)cc2c2c1cc(CN1CCN(C(C)C)CC1=O)n2[C@H]1[C@H]2CN[C@@H]1C2 [Example 16, 3-(1-((1R,4R,5S)-2-azabicyclo[2.1.1]hexan-5-yl)-7-(2,3-dichloro-5-hydroxyphenyl)-4-ethoxy-6-fluoro-2-((4-isopropyl-2-oxopiperazin-1-yl)methyl)-1H-pyrrolo[3,2-c]quinolin-8-yl)propanenitrile]
4 | < 100 | +++ (a Caco-2 value of >1) | < 100 | – | N#CCCc1cc2c(ncc3cc([C@H]4CCCN4C(=O)N4CC(F)(F)C4)n([C@H]4[C@H]5CN[C@@H]4C5)c32)c(F)c1-c1cccc(Cl)c1Cl [Example 43, 3-(1-((1R,4R,5S)-2-Azabicyclo[2.1.1]hexan-5-yl)-7-(2,3-dichlorophenyl)-2-((R)-1-(3,3-difluoroazetidine-1-carbonyl)pyrrolidin-2-yl)-6-fluoro-1H-pyrrolo[3,2-c]quinolin-8-yl)propanenitrile]
5 | < 100 | ++ (a Caco-2 value of >0.5 but ≤1) | < 100 | – | CC(O)c1nc2c(F)c(-c3cccc(Cl)c3Cl)c(CCC#N)cc2c2c1cc([C@@H](C)NC(=O)C1(C)CC1)n2[C@H]1[C@H]2CN[C@@H]1C2 (stereo partly drawn) [Example 61, N-((1R)-1-(1-((1R,4R,5S)-2-Azabicyclo[2.1.1]hexan-5-yl)-8-(2-cyanoethyl)-7-(2,3-dichlorophenyl)-6-fluoro-4-(1-hydroxyethyl)-1H-pyrrolo[3,2-c]quinolin-2-yl)ethyl)-1-methylcyclopropane-1-carboxamide]
6 | < 100 | +++ (a Caco-2 value of >1) | < 100 | – | COC(=O)N1CCC[C@@H]1c1cc2c(-c3ccc(CN(C)C)c(F)c3F)nc3c(F)c(-c4cccc(Cl)c4Cl)c(CCC#N)cc3c2n1[C@H]1[C@H]2CN[C@@H]1C2 [Example 73, methyl (2R)-2-(1-((1R,4R,5S)-2-Azabicyclo[2.1.1]hexan-5-yl)-8-(2-cyanoethyl)-7-(2,3-dichlorophenyl)-4-(4-((dimethylamino)methyl)-2,3-difluorophenyl)-6-fluoro-1H-pyrrolo[3,2-c]quinolin-2-yl)pyrrolidine-1-carboxylate]
7 | < 100 | – | < 100 | + (a Caco-2 value of 50.5) | Cc1cc2c(O[C@@H](C)[C@@H]3CCCN3C)nc3c(F)c(-c4cc(O)cc(Cl)c4Cl)c(CCC#N)cc3c2n1[C@H]1[C@H]2CN[C@@H]1C2 (single isomer, unassigned) [Example 12]
8 | < 100 | +++ (a Caco-2 value of >1) | < 100 | – | CC(O)c1nc2c(F)c(-c3cccc(Cl)c3Cl)c(CCC#N)cc2c2c1cc([C@@H](C)NC(=O)C1(F)CCC1)n2[C@H]1[C@H]2CN[C@@H]1C2 (stereo partly drawn) [Example 66, N-((1R)-1-(1-((1R,4R,5S)-2-azabicyclo[2.1.1]hexan-5-yl)-8-(2-cyanoethyl)-7-(2,3-dichlorophenyl)-6-fluoro-4-(1-hydroxyethyl)-1H-pyrrolo[3,2-c]quinolin-2-yl)ethyl)-1-fluorocyclobutane-1-carboxamide]
9 | < 100 | +++ (a Caco-2 value of >1) | < 100 | – | COC(=O)N1[C@@H](c2cc3c(-c4ccc(C(=O)N(C)C)nc4)nc4c(F)c(-c5cccc(Cl)c5Cl)c(CCC#N)cc4c3n2[C@H]2[C@H]3CN[C@@H]2C3)C[C@@H]2C[C@@H]21 [Example 30, Methyl (1S,3R,5S)-3-(1-((1R,4R,5S)-2-azabicyclo[2.1.1]hexan-5-yl)-8-(2-cyanoethyl)-7-(2,3-dichlorophenyl)-4-(6-(dimethylcarbamoyl)pyridin-3-yl)-6-fluoro-1H-pyrrolo[3,2-c]quinolin-2-yl)-2-azabicyclo[3.1.0]hexane-2-carboxylate]
10 | < 100 | – | < 100 | + (a Caco-2 value of 50.5) | Cc1cc2c(O[C@@H](C)[C@@H]3CCCN3C)nc3c(F)c(-c4c[nH]c5c(F)cc(F)cc45)c(CCC#N)cc3c2n1[C@H]1[C@H]2CN[C@@H]1C2 [Example 2, 3-(1-((1R,4R,5S)-2-Azabicyclo[2.1.1]hexan-5-yl)-7-(5,7-difluoro-1H-indol-3-yl)-6-fluoro-2-methyl-4-((S)-1-((S)-1-methylpyrrolidin-2-yl)ethoxy)-1H-pyrrolo[3,2-c]quinolin-8-yl)propanenitrile]
11 | < 100 | – | < 100 | +++ (a Caco-2 value of >1) | CC(=O)N1CC[C@H](n2ncc3c(O[C@@H](C)[C@@H]4CCCN4C)nc4c(F)c(-c5cccc6cccc(C#N)c56)c(C#N)cc4c32)C[C@H]1CC#N (single isomer, unassigned) [Example 7]
12 | < 100 | – | < 100 | ++ (a Caco-2 value of >0.5 but ≤1) | Cc1cc2c(nc(O[C@@H](C)[C@@H]3CCCN3C)c3cc(C)n([C@H]4[C@H]5CN[C@@H]4C5)c32)c(F)c1-c1cccc2cccc(C#N)c12 [Example 6, 8-(1-((1R,4R,5S)-2-Azabicyclo[2.1.1]hexan-5-yl)-6-fluoro-2,8-dimethyl-4-((S)-1-((S)-1-methylpyrrolidin-2-yl)ethoxy)-1H-pyrrolo[3,2-c]quinolin-7-yl)-1-naphthonitrile]
13 | < 100 | – | < 100 | ++ (a Caco-2 value of >0.5 but ≤1) | Cc1cc2c(-n3cncn3)nc3c(F)c(-c4cc(O)cc5ccc(Cl)cc45)c(CCC#N)cc3c2n1[C@H]1[C@H]2CN[C@@H]1C2 [Example 1, 3-(1-((1R,4R,5S)-2-Azabicyclo[2.1.1]hexan-5-yl)-7-(7-chloro-3-hydroxynaphthalen-1-yl)-6-fluoro-2-methyl-4-(1H-1,2,4-triazol-1-yl)-1H-pyrrolo[3,2-c]quinolin-8-yl)propanenitrile]
14 | < 100 | – | < 100 | + (a Caco-2 value of 50.5) | CCOc1nc2c(F)c(-c3cc(O)cc4ccccc34)c(CCC#N)cc2c2c1cc(C(C)N1CCOCC1=O)n2[C@H]1[C@H]2CN[C@@H]1C2 (stereo partly drawn) [Example 18, 3-(1-((1R,4R,5S)-2-azabicyclo[2.1.1]hexan-5-yl)-4-ethoxy-6-fluoro-7-(3-hydroxynaphthalen-1-yl)-2-(1-(3-oxomorpholino)ethyl)-1H-pyrrolo[3,2-c]quinolin-8-yl)propanenitrile]
